Experimental data published in ChEMBL document CHEMBL4414548 (J Med Chem, 2019).

What was measured:
[1] = biological target: Non-receptor tyrosine-protein kinase TYK2 (Mus musculus, UniProt Q9R117); experiment: Inhibition of TYK2 JH2 domain in mouse whole blood assessed as inhibition of IFNalpha-induced STAT1 phosphorylation preincubated for 1 hr followed by IFNalpha stimulation and measured after 15 mins by fluorescence assay; type: tissue-based
[2] = Half life in mouse liver microsomes; type: ADME, Microsome
Mus musculus [3] = experiment: Inhibition of IL12/IL18-induced IFNgamma production in C57BL/6 mouse at 1 mg/kg, po pretreated for 1 hr followed by IL12 stimulation and subsequent IL18 addition and measured after 3 hrs relative to control; type: functional; conditions: C57BL/6, po
[4] = Drug concentration in IL12/IL18-induced C57BL/6 mouse serum at 1 mg/kg, po pretreated for 1 hr followed by IL12 stimulation and subsequent IL18 addition and measured after 5 hrs; type: ADME, organism-based; conditions: read-out: Drug uptake
[5] = Partition coefficient, log P of compound by HPLC analysis; type: physicochemical; conditions: octanol/water
[6] = Permeability across apical to basolateral side in human Caco2 cells; type: ADME, cell-based; conditions: Caco-2, read-out: permeability
[7] = Drug concentration in IL12/IL18-induced C57BL/6 mouse serum at 3 mg/kg, po pretreated for 1 hr followed by IL12 stimulation and subsequent IL18 addition and measured after 5 hrs; type: ADME, organism-based; conditions: read-out: Drug uptake
[8] = Ratio of drug concentration in IL12/IL18-induced C57BL/6 mouse serum at 0.3 mg/kg, po to IC50 for TYK2 JH2 domain in mouse whole blood; type: ADME, organism-based; conditions: in vivo
[9] = Terminal drug concentration in CD40-induced B6 CB17 mouse serum at 250 mg/kg, po BID administered as nanosuspension measured 24 hrs post-last dose; type: ADME, organism-based; conditions: read-out: Drug uptake
[10] = Efflux ratio of permeability in human Caco2; type: ADME, cell-based; conditions: Caco-2
JAK1/TYK2 = JAK1/TYK2 (Homo sapiens, UniProt P23458+P29597); experiment: Inhibition of TYK2/JAK1 in IFNalpha-stimulated human Kit225 cells by steady-glo luciferase assay
Chain of JAK1/TYK2 (P23458 whole entry, the tested form may be a part): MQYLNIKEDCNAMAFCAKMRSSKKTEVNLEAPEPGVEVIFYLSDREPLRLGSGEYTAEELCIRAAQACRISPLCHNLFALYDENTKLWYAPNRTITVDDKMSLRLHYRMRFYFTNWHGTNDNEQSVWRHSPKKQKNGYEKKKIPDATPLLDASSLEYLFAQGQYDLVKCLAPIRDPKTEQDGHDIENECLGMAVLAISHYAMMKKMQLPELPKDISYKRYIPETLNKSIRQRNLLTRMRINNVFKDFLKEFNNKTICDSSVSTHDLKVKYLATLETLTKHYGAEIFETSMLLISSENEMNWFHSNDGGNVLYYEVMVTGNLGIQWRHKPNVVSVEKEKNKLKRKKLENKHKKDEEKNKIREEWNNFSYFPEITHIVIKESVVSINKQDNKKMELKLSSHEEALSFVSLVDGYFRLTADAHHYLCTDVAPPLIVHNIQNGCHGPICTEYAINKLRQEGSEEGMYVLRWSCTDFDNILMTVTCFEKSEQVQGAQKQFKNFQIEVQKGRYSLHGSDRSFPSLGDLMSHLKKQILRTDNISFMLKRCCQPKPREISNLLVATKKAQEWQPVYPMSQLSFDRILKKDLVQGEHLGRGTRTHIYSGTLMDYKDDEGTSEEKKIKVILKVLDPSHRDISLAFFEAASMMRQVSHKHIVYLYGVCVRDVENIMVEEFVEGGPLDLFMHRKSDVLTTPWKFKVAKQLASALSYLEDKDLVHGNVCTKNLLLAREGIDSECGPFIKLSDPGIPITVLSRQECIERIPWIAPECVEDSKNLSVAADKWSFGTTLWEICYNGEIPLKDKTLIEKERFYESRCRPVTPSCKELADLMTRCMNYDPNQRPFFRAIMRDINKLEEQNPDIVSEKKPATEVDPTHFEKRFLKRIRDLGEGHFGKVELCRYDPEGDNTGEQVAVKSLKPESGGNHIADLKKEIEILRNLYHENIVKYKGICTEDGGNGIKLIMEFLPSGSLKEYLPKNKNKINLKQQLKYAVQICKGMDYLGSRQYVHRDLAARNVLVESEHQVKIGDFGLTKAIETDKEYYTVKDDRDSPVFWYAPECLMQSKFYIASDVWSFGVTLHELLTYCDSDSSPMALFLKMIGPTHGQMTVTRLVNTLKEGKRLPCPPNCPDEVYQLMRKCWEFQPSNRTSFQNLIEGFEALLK
Chain of JAK1/TYK2 (P29597 whole entry, the tested form may be a part): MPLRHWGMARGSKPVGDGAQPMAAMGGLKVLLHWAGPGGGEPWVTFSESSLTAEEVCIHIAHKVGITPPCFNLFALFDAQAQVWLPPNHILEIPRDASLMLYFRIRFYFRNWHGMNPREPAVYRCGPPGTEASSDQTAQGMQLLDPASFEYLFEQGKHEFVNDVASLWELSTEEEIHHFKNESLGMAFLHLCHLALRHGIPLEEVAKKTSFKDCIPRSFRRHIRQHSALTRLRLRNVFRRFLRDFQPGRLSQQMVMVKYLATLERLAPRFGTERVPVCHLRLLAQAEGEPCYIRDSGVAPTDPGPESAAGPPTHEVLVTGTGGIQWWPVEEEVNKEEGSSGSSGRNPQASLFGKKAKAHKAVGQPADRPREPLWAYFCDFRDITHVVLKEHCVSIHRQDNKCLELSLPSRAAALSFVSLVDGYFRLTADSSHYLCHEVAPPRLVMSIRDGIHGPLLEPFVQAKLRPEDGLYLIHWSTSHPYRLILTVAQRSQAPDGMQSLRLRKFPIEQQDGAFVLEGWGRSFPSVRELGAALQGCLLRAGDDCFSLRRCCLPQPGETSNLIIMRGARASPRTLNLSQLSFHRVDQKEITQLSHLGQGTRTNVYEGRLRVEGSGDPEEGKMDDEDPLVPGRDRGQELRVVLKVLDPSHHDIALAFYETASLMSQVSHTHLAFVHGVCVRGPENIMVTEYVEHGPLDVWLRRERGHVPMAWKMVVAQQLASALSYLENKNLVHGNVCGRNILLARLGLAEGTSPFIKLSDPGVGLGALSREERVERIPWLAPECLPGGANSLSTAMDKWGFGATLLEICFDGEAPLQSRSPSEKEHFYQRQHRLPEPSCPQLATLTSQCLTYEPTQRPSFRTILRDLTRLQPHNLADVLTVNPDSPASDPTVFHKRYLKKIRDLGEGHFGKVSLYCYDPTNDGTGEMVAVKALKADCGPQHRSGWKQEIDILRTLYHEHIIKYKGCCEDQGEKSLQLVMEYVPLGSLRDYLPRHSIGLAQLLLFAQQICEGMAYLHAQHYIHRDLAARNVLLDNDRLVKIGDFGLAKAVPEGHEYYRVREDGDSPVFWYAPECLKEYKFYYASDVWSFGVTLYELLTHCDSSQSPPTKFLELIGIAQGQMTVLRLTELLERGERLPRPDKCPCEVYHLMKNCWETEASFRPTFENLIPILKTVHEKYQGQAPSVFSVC

[11] = biological target: T1, Non-receptor tyrosine-protein kinase TYK2 (Homo sapiens, UniProt P29597); experiment: Inhibition of fluorescein-labeled kinase tracer binding to His-TVMV-fused TYK2 JH2 domain (575 to 869 residues) (unknown origin) measured after 90 mins by HTRF assay
T1 sequence (P29597 whole entry, the tested form may be a part): as above

[12] = biological target: T1, Non-receptor tyrosine-protein kinase TYK2; experiment: Inhibition of TYK2 JH2 (unknown origin) by morrison titration assay; conditions: read-out: Ki(app)
[13] = Drug concentration in IL12/IL18-induced C57BL/6 mouse serum at 10 mg/kg, po pretreated for 1 hr followed by IL12 stimulation and subsequent IL18 addition and measured after 5 hrs; type: ADME, organism-based; conditions: read-out: Drug uptake
[14] = biological target: Tyrosine-protein kinase JAK2 (Homo sapiens, UniProt O60674); experiment: Inhibition of JAK2 JH1 domain (unknown origin)
Chain of Tyrosine-protein kinase JAK2 (O60674 whole entry, the tested form may be a part): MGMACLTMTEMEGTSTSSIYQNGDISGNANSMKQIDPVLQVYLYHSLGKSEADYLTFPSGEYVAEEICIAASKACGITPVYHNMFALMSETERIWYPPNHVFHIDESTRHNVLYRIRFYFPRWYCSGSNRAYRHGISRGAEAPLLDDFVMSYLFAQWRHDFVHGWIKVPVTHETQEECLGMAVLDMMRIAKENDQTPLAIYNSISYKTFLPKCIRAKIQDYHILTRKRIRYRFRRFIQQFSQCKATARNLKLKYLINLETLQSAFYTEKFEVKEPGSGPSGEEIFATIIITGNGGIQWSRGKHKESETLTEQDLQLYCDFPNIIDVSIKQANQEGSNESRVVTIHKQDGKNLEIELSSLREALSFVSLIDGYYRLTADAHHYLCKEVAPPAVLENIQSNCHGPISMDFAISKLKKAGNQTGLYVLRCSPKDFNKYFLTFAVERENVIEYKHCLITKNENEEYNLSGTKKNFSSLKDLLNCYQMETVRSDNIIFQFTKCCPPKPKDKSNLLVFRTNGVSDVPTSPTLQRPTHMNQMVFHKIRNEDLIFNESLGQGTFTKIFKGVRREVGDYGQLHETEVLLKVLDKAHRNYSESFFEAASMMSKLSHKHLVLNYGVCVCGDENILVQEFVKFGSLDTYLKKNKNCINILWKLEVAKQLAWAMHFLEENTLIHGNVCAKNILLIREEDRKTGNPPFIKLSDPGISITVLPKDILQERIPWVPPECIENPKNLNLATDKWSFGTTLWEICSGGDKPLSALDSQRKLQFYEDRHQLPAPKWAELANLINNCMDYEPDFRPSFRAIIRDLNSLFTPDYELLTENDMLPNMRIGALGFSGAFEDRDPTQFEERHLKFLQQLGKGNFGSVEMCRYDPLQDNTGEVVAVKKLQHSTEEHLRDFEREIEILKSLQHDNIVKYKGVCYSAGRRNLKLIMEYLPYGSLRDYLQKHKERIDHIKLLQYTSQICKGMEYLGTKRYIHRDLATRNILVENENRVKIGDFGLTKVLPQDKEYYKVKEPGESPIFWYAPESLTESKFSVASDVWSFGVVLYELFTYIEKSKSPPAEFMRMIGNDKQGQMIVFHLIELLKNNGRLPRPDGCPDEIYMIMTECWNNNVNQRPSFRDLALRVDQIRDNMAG

[15] = biological target: Tyrosine-protein kinase JAK1 (Homo sapiens, UniProt P23458); experiment: Inhibition of JAK1 JH1 domain (unknown origin)
Chain of Tyrosine-protein kinase JAK1 (P23458 whole entry, the tested form may be a part): as the sequence (P23458 whole entry, the tested form may be a part) above

[16] = Terminal drug concentration in CD40-induced B6 CB17 mouse serum at 80 mg/kg, po BID administered as nanosuspension measured 24 hrs post-last dose; type: ADME, organism-based; conditions: read-out: Drug uptake
[17] = biological target: T1, Non-receptor tyrosine-protein kinase TYK2; experiment: Inhibition of TYK2 JH1 domain (unknown origin)
[18] = Half life in rat liver microsomes; type: ADME, Microsome
[19] = Ratio of drug concentration in IL12/IL18-induced C57BL/6 mouse serum at 10 mg/kg, po to IC50 for TYK2 JH2 domain in mouse whole blood; type: ADME, organism-based; conditions: in vivo
[20] = Cmax in mouse at 10 mg/kg, po after 7 hrs; type: ADME, organism-based; set-up: dose 10 mg/kg, route oral; conditions: in vivo
[21] = Ratio of drug concentration in IL12/IL18-induced C57BL/6 mouse serum at 1 mg/kg, po to IC50 for TYK2 JH2 domain in mouse whole blood; type: ADME, organism-based; conditions: in vivo
[22] = Terminal drug concentration in CD40-induced B6 CB17 mouse serum at 25 mg/kg, po BID administered as nanosuspension measured 24 hrs post-last dose; type: ADME, organism-based; conditions: read-out: Drug uptake
[23] = Drug metabolism in C57BL/6 mouse plasma assessed as amide formation at 0.3 to 10 mg/kg, po; type: ADME, organism-based; conditions: in vivo
[24] = Drug concentration in IL12/IL18-induced C57BL/6 mouse serum at 0.3 mg/kg, po pretreated for 1 hr followed by IL12 stimulation and subsequent IL18 addition and measured after 5 hrs; type: ADME, organism-based; conditions: read-out: Drug uptake
[25] = Half life in cynomolgus monkey liver microsomes; type: ADME, Macaca fascicularis, Microsome
[26] = biological target: T1, Non-receptor tyrosine-protein kinase TYK2; experiment: Inhibition of TYK2 JH2 domain in human whole blood assessed as inhibition of IFNalpha-induced STAT5 phosphorylation preincubated for 1 hr followed by IFNalpha stimulation and measured after 15 mins by fluorescence assay; type: tissue-based
[27] = Half life in human liver microsomes; type: ADME, Microsome
Mus musculus [28] = experiment: Inhibition of IL12/IL18-induced IFNgamma production in C57BL/6 mouse at 0.3 mg/kg, po pretreated for 1 hr followed by IL12 stimulation and subsequent IL18 addition and measured after 3 hrs relative to control; type: functional; conditions: C57BL/6, po
Mus musculus [29] = experiment: Inhibition of IL12/IL18-induced IFNgamma production in C57BL/6 mouse at 3 mg/kg, po pretreated for 1 hr followed by IL12 stimulation and subsequent IL18 addition and measured after 3 hrs relative to control; type: functional; conditions: C57BL/6, po
[30] = Ratio of drug concentration in IL12/IL18-induced C57BL/6 mouse serum at 3 mg/kg, po to IC50 for TYK2 JH2 domain in mouse whole blood; type: ADME, organism-based; conditions: in vivo
Mus musculus [31] = experiment: Inhibition of IL12/IL18-induced IFNgamma production in C57BL/6 mouse at 10 mg/kg, po pretreated for 1 hr followed by IL12 stimulation and subsequent IL18 addition and measured after 3 hrs relative to control; type: functional; conditions: C57BL/6, po
[32] = AUClast in mouse at 10 mg/kg, po after 7 hrs; type: ADME, organism-based; set-up: time < 7 hr, dose 10 mg/kg, route oral; conditions: in vivo
[33] = Half life in dog liver microsomes; type: ADME, Canis lupus familiaris, Microsome

Chain of Non-receptor tyrosine-protein kinase TYK2 (Mus musculus, UniProt Q9R117) (Q9R117 whole entry, the tested form may be a part): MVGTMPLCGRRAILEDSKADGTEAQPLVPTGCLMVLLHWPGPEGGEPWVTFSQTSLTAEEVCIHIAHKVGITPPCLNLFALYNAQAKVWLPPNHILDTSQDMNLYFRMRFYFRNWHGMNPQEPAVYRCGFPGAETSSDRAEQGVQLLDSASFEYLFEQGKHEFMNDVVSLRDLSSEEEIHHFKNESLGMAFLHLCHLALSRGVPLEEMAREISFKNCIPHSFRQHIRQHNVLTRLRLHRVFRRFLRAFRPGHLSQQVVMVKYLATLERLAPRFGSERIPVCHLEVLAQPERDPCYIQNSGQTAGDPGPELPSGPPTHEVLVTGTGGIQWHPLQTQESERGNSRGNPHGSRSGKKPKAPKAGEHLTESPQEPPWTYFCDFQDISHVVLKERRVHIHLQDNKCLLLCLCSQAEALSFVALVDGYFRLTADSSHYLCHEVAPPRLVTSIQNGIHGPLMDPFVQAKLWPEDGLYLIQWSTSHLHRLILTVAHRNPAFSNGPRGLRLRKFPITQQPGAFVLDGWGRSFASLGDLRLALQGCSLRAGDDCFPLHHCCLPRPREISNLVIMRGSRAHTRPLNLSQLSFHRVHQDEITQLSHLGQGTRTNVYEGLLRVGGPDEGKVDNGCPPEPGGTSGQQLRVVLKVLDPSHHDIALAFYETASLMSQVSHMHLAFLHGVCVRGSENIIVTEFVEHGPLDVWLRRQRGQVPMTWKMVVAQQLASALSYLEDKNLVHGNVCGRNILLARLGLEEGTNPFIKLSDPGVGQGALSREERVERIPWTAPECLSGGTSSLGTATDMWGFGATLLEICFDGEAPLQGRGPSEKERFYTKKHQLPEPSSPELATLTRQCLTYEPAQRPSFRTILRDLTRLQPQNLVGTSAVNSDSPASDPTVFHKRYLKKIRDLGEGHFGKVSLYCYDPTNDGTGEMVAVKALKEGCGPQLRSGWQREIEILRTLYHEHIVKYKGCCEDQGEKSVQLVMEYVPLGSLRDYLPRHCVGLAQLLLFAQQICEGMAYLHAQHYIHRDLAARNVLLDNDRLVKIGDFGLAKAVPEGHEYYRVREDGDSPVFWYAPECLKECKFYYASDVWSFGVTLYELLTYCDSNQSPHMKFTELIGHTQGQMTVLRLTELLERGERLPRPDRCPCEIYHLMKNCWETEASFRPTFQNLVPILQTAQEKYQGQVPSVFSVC

## [2H]C([2H])([2H])NC(=O)c1nnc(Nc2ccccn2)cc1Nc1ccccc1S(C)(=O)=O
[1]
  IC50: 120 nM
[2]
  half-life: 46 min
Mus musculus [3]
  inhibition in vivo at 1 mg/kg: 56%
[4]
  concentration at 5 h: 69 nM
[5]
  logP: 2.45
[6]
  Papp A→B: 28 ×10⁻⁶ cm/s
[7]
  concentration at 5 h: 133 nM
[8]
  Ratio: 0.2
[9]
  concentration at 24 h: 77 nM
[10]
  efflux ratio: 2.1
JAK1/TYK2
  IC50: 0.53 nM
[11]
  IC50: 0.53 nM
[12]
  Ki: 0.07 nM
[13]
  concentration at 5 h: 503 nM
[14]
  IC50: > 50 µM
[15]
  IC50: > 40 µM
[16]
  concentration at 24 h: 67 nM
[17]
  IC50: > 50 µM
[18]
  half-life: 49 min
[19]
  Ratio: 4
[20]
  Cmax: 10.5 µM
[21]
  Ratio: 0.5
[22]
  concentration at 24 h: 12 nM
[23]
  Drug metabolism: Metabolite_Notdetected
[24]
  concentration at 5 h: 24 nM
[25]
  half-life: 4 min
[26]
  IC50: 130 nM
[27]
  half-life: 48 min
Mus musculus [28]
  inhibition in vivo at 0.3 mg/kg: 13%
Mus musculus [29]
  inhibition in vivo at 3 mg/kg: 77%
[30]
  Ratio: 1
Mus musculus [31]
  inhibition in vivo at 10 mg/kg: 91%
[32]
  AUC(0-t) at 7 h: 24.3 µM·h
[33]
  half-life: 19 min
